This passage reports IC50 and inhibition results from ChEMBL document CHEMBL1139311, “Synthesis of biflavones having a 6-O-7'' linkage and effects on cyclooxygenase-2 and inducible nitric oxide synthase” (Bioorg Med Chem Lett, 2009).

Common to all, as to type: cell-based
For assay [1], the target named is T1, Prostaglandin G/H synthase 2 (Mus musculus, UniProt Q05769).
T1 sequence (Q05769 whole entry): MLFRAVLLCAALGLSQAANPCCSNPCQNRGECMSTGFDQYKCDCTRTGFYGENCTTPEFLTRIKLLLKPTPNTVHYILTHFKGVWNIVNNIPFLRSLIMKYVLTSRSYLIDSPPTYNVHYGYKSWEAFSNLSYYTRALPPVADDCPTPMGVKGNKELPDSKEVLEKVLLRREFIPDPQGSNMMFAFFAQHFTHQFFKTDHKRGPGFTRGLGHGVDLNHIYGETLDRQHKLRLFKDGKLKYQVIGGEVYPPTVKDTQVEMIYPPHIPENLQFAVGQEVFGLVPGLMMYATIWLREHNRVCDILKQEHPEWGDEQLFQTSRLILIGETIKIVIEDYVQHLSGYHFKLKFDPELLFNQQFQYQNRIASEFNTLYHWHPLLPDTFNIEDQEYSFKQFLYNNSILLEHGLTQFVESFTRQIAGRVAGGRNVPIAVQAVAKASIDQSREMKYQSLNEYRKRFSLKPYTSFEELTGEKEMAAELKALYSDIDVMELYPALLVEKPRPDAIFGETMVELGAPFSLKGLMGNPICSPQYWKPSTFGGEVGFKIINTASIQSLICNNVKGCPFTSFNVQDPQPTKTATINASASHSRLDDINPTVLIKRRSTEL
Description: Inhibition of COX2-mediated PGE2 production in LPS-stimulated mouse RAW264.7 cells by ELISA.

Assay [2] addresses T2, Nitric oxide synthase, inducible (Mus musculus, UniProt P29477).
T2 sequence (P29477 whole entry): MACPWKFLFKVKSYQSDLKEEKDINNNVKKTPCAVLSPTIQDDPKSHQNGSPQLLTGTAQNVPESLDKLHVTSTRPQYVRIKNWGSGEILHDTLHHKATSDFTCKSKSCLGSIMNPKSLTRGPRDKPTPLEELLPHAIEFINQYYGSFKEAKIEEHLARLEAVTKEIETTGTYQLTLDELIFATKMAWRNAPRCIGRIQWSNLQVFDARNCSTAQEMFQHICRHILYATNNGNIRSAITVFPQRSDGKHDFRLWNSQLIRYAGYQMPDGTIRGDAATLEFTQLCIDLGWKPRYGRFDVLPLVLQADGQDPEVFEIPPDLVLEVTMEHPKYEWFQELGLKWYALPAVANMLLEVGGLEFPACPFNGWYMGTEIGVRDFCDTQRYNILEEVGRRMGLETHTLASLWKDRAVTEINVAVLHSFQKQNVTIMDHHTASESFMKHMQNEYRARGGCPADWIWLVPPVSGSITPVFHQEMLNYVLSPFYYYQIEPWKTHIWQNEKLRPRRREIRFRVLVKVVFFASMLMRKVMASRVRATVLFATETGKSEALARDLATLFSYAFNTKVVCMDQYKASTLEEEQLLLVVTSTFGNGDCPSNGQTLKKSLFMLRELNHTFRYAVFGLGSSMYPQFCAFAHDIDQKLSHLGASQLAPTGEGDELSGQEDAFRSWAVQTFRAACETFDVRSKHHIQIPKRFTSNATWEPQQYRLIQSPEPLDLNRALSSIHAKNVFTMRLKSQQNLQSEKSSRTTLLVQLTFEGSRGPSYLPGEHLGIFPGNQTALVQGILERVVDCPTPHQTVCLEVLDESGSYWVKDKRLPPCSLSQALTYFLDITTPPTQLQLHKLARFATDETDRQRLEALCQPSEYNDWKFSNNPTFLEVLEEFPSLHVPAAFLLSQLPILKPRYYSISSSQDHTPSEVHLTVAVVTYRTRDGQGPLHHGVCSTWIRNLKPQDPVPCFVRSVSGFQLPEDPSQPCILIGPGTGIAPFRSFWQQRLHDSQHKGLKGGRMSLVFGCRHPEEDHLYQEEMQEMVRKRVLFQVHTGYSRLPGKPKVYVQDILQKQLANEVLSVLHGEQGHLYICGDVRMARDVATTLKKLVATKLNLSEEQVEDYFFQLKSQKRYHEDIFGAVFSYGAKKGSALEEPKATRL
In words: Inhibition of iNOS-mediated NO production in LPS-stimulated mouse RAW264.7 cells by Griess method.

The target of assay [3] is T3, Nitric oxide synthase, inducible (Mus musculus) (UniProt P29477).
T3 sequence (whole entry): T2 sequence (P29477 whole entry)
Description: Inhibition of iNOS-mediated NO production in LPS-stimulated mouse RAW264.7 cells at […].

The molecule `O=c1cc(-c2ccccc2)oc2cc(Oc3ccc4oc(-c5ccc(O)cc5O)cc(=O)c4c3)ccc12` yielded an IC50 in assay [1] greater than 50 µM.
For the molecule `O=c1cc(-c2ccc(O)cc2)oc2cc(Oc3ccc4oc(-c5ccccc5O)cc(=O)c4c3)ccc12`, the IC50 in assay [1] is greater than 50 µM; in assay [2], 10 µM.
For `COc1ccc(-c2cc(=O)c3cc(Oc4ccc5c(=O)cc(-c6ccc(OC)cc6OC)oc5c4)ccc3o2)cc1`, in that order: greater than 50 µM and greater than 50 µM.
For `COc1ccc(-c2cc(=O)c3cc(Oc4ccc5c(=O)cc(-c6ccccc6)oc5c4)ccc3o2)cc1`, in assay [1], inhibition was half-maximal at 2 µM (IC50). This lies in the single-digit micromolar range.
In the case of `O=c1cc(-c2ccc(O)cc2)oc2cc(Oc3ccc4oc(-c5ccc(O)cc5O)cc(=O)c4c3)ccc12`, the IC50 in assay [1] and in assay [2] was greater than 50 µM throughout.
Turning to `O=c1cc(-c2ccc(O)cc2)oc2cc(Oc3ccc4oc(-c5ccc(O)cc5)cc(=O)c4c3)ccc12`, the IC50 in assay [1] is greater than 50 µM.
For `O=c1cc(-c2ccccc2)oc2cc(Oc3ccc4oc(-c5ccccc5)cc(=O)c4c3)ccc12`, the results for the half-inhibitory concentration (IC50) in assay [1] and in assay [2] were less than 2 µM and greater than 50 µM, respectively.
The like results for `COc1ccc(-c2cc(=O)c3ccc(Oc4ccc5oc(-c6ccc(OC)cc6OC)cc(=O)c5c4)cc3o2)c(OC)c1` were, in that order, 50 µM and greater than 50 µM.
As to `CC1CCN=C(N)S1` (stereo not drawn), the inhibition in assay [3] is 92.5%.
The molecule `O=c1cc(-c2ccccc2)oc2cc(Oc3ccc4oc(-c5ccccc5O)cc(=O)c4c3)ccc12` registered a 50% inhibitory concentration (IC50) in assay [1] greater than 50 µM.
Take `O=c1cc(-c2ccc(O)cc2O)oc2cc(Oc3ccc4oc(-c5ccc(O)cc5O)cc(=O)c4c3)ccc12`: the IC50 in assay [1] and in assay [2] was 10 µM throughout.
On to `COc1ccc(-c2cc(=O)c3ccc(Oc4ccc5oc(-c6ccc(OC)cc6OC)cc(=O)c5c4)cc3o2)cc1`, for which the IC50 in assay [1] and in assay [2] was greater than 50 µM in each case.
Turning to `COc1ccccc1-c1cc(=O)c2cc(Oc3ccc4c(=O)cc(-c5ccccc5)oc4c3)ccc2o1`, in assay [1], the 50% inhibitory concentration (IC50) was greater than 50 µM.
`O=c1cc(-c2ccc(O)cc2)oc2ccc(Oc3ccc4c(=O)cc(-c5ccc(O)cc5O)oc4c3)cc12`: the IC50 is greater than 50 µM in assay [1] and 50 µM in assay [2].
As to `COc1ccc(-c2cc(=O)c3cc(Oc4ccc5c(=O)cc(-c6ccccc6)oc5c4)ccc3o2)c(OC)c1`, the IC50 in assay [1] was 2 µM.
